Patent US8969413B2

Tests used:
Sprague-Dawley rats [1] = details: saline/cocaine pairings, cocaine 20 mg/kg i.p.
Sprague-Dawley rats [2] = assay: μPET imaging of 11C-raclopride binding after cocaine; details: cocaine 5 mg/kg intravenous, average, preliminary
[3] = target: γ-aminobutyric acid aminotransferase (GABA-AT) (Sus scrofa, UniProt P80147); details: cited from earlier work
human ρ1 GABAC receptors = target: T1, human ρ1 GABAC receptors (Homo sapiens, UniProt P24046); assay: GABAC receptor two-electrode voltage clamp in Xenopus laevis oocytes; assay type: cell-based; details: GABA 1 μM (EC80), clamped at −60 mV
T1 construct: expressed in transfected cells; host or cells: Xenopus laevis oocytes injected with ρ1 mRNA
Protocol: Human ρ1 cDNA encapsulated in pcDNA1.1 was linearized with Not1. Linearized cDNA was transcribed to mRNA using the T7 “mMESSAGE mMACHINE” kit (Ambion Inc. Austin, Tex., USA) as previously described. […] Eur. J. Pharmacol. 2001, 430, 185-192. GABAC receptor activity assays were performed in oocytes harvested from Xenopus laevis (housed in the Department of Veterinary Science at the University of Sydney) and defolliculated. The oocytes were stored in ND96 solution (in mM) NaCl (96), KCl (2), MgCl2 (1), CaCl2 (1.8), HEPES (hemi-Na salt; 5) supplemented with sodium pyruvate (2.5), theophylline (0.5), and 50 μg/ml^−1 gentamycin for 2-5 days post-injection.
Electrophysiological methods were performed as previously described. Hertz L, Juurlink B H J, Hertz E, Fosmark H and Schousboe A. Preparation of Primary Cultures of Mouse (Rat) Astrocytes, in A Dissection and Tissue Culture Mnual of the Nervous System (Shahar A, de Vellis J, Vernadakis A and Haber B eds) pp 105-108, Alan R. Liss, Inc., New York, 1989 Stage V-VI oocytes were injected with 10 ng 50 nl^−1 of ρ1 mRNA and then stored at 16° C. Recordings of receptor activity were obtained for 2-5 days by a two-electrode voltage clamp by means of a Geneclamp 500 amplifier (Axon Instruments Inc., Foster City, Calif.), a MacLab 2e recorder (AD Instruments, Sydney, NSW), and Chart version 3.6.3 program. Oocytes were voltage clamped at −60 mV, and the preparation was continually perfused with ND96 solution at room temperature. […] Compound 2 (CPP-115) was tested on three oocytes from at least two harvests.

hGAT-2 = target: T2, hGAT-2 (Homo sapiens, UniProt Q9NSD5); details: data from Kvist et al. 2009; read-out: hGAT-2 uptake IC50; cited from earlier work
T2 construct: expressed in transfected cells; host or cells: tsA201 cells, transient (PolyFect)

hGAT-3 = target: T3, hGAT-3 (Homo sapiens, UniProt P48066); details: data from Kvist et al. 2009; read-out: hGAT-3 uptake IC50; cited from earlier work
T3 construct: expressed in transfected cells; host or cells: tsA201 cells, transient (PolyFect)

mGAT2 = target: T4, mGAT2 (Mus musculus, UniProt P31651); details: data from Bolvig et al. 1999; read-out: mGAT2 uptake IC50; cited from earlier work
T4 construct: expressed in transfected cells

Mice [4] = assay: minimal clonic seizure (6 Hz) test; assay type: in vivo; details: Single IP drug dose, 3 seconds; for ED50: Mus musculus, ip; for ED50 / 6 Hz TPE: corneal electrode
Description: Some clinically useful AEDs are ineffective in the standard MES and scMET tests but still have anticonvulsant activities in vivo. In order to identify potential AEDs with this profile, compounds may be tested in the minimal clonic seizure (6 Hz or ‘psychomotor’) test (Barton et al., 2001). […] Test compounds are pre-administered to mice via i.p. injection. At varying times, individual mice (four per time point) are challenged with sufficient current delivered through corneal electrodes to elicit a psychomotor seizure in 97% of animals (32 mA for 3 s) (Toman et al., 1952). Untreated mice will display seizures characterized by a minimal clonic phase followed by stereotyped, automatistic behaviors described originally as being similar to the aura of human patients with partial seizures. Animals not displaying this behavior are considered protected. The test may be evaluated quantitatively by measuring the responses at varying doses at a determined time of peak effect (TPE). This test may also be conducted at 22 and 44 mA if requested by ASP staff.

Mice [5] = assay: corneal kindling; assay type: in vivo; details: Single IP drug dose, 3 secs; for ED50: read-out: Corn. Kind. ED50
Description: Mice are kindled electrically with 3 sec stimulation, 8 mA, 60 Hz, and corneal electrodes to a criterion of 10 consecutive Stage 5 seizures (facial clonus and head nodding progressing to forelimb clonus, and finally rearing and falling accompanied by a generalized clonic seizure as described by Racine). Stage 5 is generally reached after twice daily stimulation for 8 days. With continued stimulation once a day, animals usually progress to a reproducible Stage 5 after 10-14 additional days. At least 72 hours after the mice have been kindled, the test substance is administered either i.p. or p.o. and, at the previously determined TPE, each animal is given the electrical stimulus indicated above. Following stimulation, the animals are observed for the presence or absence of the rearing and falling criteria of a Stage 5 seizure. Treated animals not displaying a Stage 3, 4, or 5 seizure are considered protected. The dose of the test substance is varied between the limits of 0 and 100% efficacy, and the ED50 (mean effective dose) and 95% confidence intervals calculated by probit analysis. Mean values and the S.E.M. are calculated for the length of clonus and seizure duration and p values are determined by the Student's t-test

Mice [6] = assay: subcutaneous Metrazol seizure threshold test (scMET); assay type: in vivo; details: Single IP drug dose, Metrazol 85 mg/kg; up to 1500 mg/kg
Protocol: (§1) Subcutaneous injection of the convulsant Metrazol produces clonic seizures in laboratory animals. […] Animals are pretreated with various doses of the test compound given by i.p. injection. At the previously determined TPE of the test compound, the dose of Metrazol which will induce convulsions in 97% of animals (CD97; 85 mg/kg mice) is injected into a loose fold of skin in the midline of the neck. The animals are placed in isolation cages to minimize stress (Swinyard et al, 1961) and observed for the next 30 minutes for the presence or absence of a seizure. An episode of clonic spasms, approximately 3-5 seconds, of the fore and/or hindlimbs, jaws, or vibrissae is taken as the endpoint.

Rat = assay: as above; assay type: in vivo; details: 7 days IP, at 600 mg/kg, Metrazol 70 mg/kg
Protocol: as §1

Mice [7] = assay: subcutaneous picrotoxin (scPIC); assay type: in vivo; details: Single IP drug dose, 2.5 mg/kg PIC; up to 100 mg/kg
Protocol: Bicuculline (Bic) and Picrotoxin (Pic) are chemoconvulsants that cause clonic seizures in a manner similar to Metrazol (see scMET test). […] Therefore, as much as possible it is useful to differentiate novel AEDs pharmacologically. […]. At a previously determined time of peak effect (TPE), the animals are given a subcutaneous injection of either of the noted chemo-convulsants using the convulsive dose (CD97—a dose of 2.7 or 2.5 mg/kg, for Bic and Pic, respectively). The experimental animals are placed in isolation cages to minimize possible crowding stresses (Swinyard et al., 1961) and observed for the next 30 minutes (for Bic) or 45 minutes (for Pic) for the presence or absence of a seizure. An episode of clonic spasms, approximately 3-5 seconds, of the fore and/or hindlimbs, jaws, or vibrissae is used as the experimental endpoint.

Sprague-Dawley rats [8] = details: vigabatrin, earlier work; cited from earlier work
Sprague-Dawley rats [9] = details: vigabatrin, Ashby et al. 1999; cited from earlier work
humans = details: trial of 103 subjects, cocaine dependence; cited from earlier work
patients = details: cited from earlier work
human brain GABA = details: after a single dose; cited from earlier work
Sprague Dawley rats = assay: cocaine induced dopamine surge in nucleus accumbens (FIG. 3); details: vigabatrin 300 mg/kg single dose

γ-aminobutyric acid aminotransferase (GABA-AT), sequence (P80147 29-500): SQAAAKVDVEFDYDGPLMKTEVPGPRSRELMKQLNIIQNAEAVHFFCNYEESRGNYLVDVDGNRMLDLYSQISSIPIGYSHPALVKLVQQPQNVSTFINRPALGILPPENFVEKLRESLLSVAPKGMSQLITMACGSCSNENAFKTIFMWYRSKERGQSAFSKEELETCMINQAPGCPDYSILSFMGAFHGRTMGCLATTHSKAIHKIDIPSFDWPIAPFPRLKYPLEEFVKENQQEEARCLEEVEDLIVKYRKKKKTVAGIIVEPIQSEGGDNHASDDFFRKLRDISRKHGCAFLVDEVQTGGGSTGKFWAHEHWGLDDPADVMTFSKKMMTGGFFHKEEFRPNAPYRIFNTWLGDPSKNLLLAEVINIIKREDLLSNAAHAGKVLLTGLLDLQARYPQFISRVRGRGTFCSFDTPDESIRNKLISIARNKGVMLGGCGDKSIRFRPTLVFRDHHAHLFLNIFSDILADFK
T1 sequence (P24046 21-479 limits assumed): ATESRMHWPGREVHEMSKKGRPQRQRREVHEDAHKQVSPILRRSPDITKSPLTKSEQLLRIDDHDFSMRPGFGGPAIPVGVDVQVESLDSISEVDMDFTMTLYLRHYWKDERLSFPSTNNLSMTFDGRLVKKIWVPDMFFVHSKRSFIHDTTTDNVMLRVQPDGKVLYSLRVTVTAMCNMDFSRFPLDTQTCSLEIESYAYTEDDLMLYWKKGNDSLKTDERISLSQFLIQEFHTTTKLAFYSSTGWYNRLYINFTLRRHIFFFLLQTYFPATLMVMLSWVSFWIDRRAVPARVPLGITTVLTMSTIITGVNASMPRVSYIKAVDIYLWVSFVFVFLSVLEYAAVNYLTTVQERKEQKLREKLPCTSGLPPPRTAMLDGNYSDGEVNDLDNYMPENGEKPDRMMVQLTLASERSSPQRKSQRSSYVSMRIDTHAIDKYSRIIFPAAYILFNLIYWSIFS
T3 sequence (P48066 whole entry): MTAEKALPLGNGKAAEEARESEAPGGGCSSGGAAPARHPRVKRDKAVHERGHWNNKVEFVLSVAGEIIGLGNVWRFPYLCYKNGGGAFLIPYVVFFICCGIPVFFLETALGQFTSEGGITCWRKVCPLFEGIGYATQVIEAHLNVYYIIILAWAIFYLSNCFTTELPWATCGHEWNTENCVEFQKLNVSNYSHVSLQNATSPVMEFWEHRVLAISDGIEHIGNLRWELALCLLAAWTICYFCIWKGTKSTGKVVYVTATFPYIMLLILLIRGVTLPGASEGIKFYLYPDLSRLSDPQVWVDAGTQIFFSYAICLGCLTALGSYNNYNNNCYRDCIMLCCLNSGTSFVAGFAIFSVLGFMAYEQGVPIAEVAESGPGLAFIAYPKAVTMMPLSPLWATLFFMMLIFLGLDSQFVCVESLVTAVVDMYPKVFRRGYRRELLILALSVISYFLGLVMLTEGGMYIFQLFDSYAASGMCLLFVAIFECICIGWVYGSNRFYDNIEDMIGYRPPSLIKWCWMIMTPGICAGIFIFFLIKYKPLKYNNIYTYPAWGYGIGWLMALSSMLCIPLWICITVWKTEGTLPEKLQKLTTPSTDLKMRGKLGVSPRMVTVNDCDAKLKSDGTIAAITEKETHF
T2 sequence (Q9NSD5 whole entry): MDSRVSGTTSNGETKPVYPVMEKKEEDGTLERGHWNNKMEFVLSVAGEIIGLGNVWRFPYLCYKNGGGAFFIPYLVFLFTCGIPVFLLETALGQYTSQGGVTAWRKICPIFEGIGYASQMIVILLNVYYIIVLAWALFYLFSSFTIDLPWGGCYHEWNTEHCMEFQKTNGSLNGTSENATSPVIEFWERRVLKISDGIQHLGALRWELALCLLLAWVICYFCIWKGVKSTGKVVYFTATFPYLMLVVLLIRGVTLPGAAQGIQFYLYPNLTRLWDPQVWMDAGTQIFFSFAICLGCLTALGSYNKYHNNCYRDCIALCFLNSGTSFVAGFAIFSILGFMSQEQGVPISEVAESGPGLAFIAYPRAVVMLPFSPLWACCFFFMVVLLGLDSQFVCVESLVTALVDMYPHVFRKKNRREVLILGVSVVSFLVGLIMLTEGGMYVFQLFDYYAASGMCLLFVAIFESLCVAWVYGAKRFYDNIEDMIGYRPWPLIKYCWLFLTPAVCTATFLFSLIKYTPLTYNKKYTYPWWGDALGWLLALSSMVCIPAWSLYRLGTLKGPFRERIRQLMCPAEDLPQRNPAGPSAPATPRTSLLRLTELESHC
T4 sequence (P31651 whole entry): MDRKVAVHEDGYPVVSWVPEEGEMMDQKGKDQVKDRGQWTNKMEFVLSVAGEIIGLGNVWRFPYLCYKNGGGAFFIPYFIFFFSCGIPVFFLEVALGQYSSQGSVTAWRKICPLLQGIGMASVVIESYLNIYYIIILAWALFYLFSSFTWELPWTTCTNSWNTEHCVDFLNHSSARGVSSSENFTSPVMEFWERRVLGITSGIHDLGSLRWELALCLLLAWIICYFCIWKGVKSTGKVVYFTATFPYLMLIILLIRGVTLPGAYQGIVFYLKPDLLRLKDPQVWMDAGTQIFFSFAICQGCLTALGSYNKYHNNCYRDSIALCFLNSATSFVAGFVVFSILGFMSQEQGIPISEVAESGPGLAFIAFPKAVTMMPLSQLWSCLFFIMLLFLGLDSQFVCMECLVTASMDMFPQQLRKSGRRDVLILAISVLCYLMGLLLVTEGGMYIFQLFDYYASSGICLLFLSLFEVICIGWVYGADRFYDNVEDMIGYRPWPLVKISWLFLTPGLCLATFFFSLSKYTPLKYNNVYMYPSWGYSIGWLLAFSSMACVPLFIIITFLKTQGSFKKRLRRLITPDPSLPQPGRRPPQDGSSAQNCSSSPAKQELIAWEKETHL

COC(=O)[C@H]1[C@@H](OC(=O)c2ccccc2)C[C@@H]2CC[C@H]1N2C [cocaine, reference compound]
time spent in the other chamber (Sprague-Dawley rats [1]): 4.8 ± 2.8 min | time spent in cocaine-paired chamber (Sprague-Dawley rats [1]; p<0.01): 12.2 ± 1.7 min | reduction of 11C-raclopride binding (Sprague-Dawley rats [2]): 22%

C=C1C[C@H](C(=O)O)C[C@@H]1N [compound 6, (1S,3S)-3-amino-4-methylenyl-1-cyclopentanoic acid]
inactivation of GABA-AT ([3]; without 2-mercaptoethanol): inactivation of GABA-AT was observed

NCCCC(=O)O [GABA, γ-aminobutyric acid]
activation of current in oocytes (human ρ1 GABAC receptors): activated an inward current | IC50 (hGAT-2): 11 µM | IC50 (hGAT-3): 10 µM | IC50 (mGAT2): 51 µM

N[C@@H]1C=C[C@H](C(=O)O)C1 [compound 1, (1R,4S)-4-amino-cyclopent-2-ene-1-carboxylic acid]
specificity constant relative to GABA ([3]; substrate of GABA-AT): almost five times greater than that of GABA

C=CC(N)CCC(=O)O (centres unmarked) [Vigabatrin, γ-vinyl GABA, reference compound]
ED50 (Mice [4]; 32 mA): 23.4 mg/kg | ED50 (Mice [4]; 44 mA): 154 mg/kg | 6 Hz protection (Mice [4]; 22 mA, all times @ 100 mg/kg): “good protection” @ | 6 Hz TPE (Mice [4]; 32 mA): TPE 4 hours | 6 Hz TPE (Mice [4]; 44 mA): TPE 4 hours | ED50 (Mice [5]; 192 h, primed @ 8 mA, 60 Hz, for 8 days): 80.4 mg/kg | ED50 (Mice [5]; 288 h, primed @ 3 mA, 50 Hz, for 12 days): 159 mg/kg | Corn. Kind. TPE (Mice [5]; primed @ 8 mA, 60 Hz, for 8 days): TPE 4 hours | scMET protection (Mice [6]): Minimal protection up | scMET protection (Rat): 75% protection at 600 | scPIC protection (Mice [7]): Minimal protection up | dose required for similar findings (block of cocaine-induced CPP) (Sprague-Dawley rats [8]): 300 mg/kg | dose effective previously against cocaine-induced dopamine increase (Sprague-Dawley rats [9]): 300 mg/kg | subjects who achieved abstinence (humans): 28.0% | share of patients affected with visual field defects (patients; after multiple years of therapy): One third or more of patients | patients with visual field defects (patients; following chronic administration): 25-50% | occurrence of visual field defect (patients; shorter duration exposure, stimulant addiction studies): does not show any occurrence of visual field defect | time after initiation of therapy at which visual field defects were detectable (patients; some patients): less than 2 months | brain GABA levels (human brain GABA): remain substantially elevated for several days | dopamine increase after cocaine challenge (Sprague Dawley rats): > 300% of baseline
